Experimental data: ChEMBL document CHEMBL4219077, “Methyllucidone inhibits STAT3 activity by regulating the expression of the protein tyrosine phosphatase MEG2 in DU145 prostate carcinoma cells” (Bioorg Med Chem Lett, 2018)
The source made the active and inactive calls. The rule behind the calls is not given here.

How the values were obtained:
[1] = target: Protein farnesyltransferase (Homo sapiens, UniProt P49354+P49356); assay: Inhibition of FPTase (unknown origin); assay type: protein-complex assay
[2] = target: T1, PTPN9/STAT3 (Homo sapiens) (UniProt P40763+P43378); assay: Modulation of MEG2 in human HCT116 cells harboring pSTAT3 (unknown origin)-TA-Luc assessed as inhibition of STAT3 transcriptional activity after 24 hrs by luciferase reporter gene assay; assay type: cell-based
[3] = target: T1, PTPN9/STAT3 (Homo sapiens); assay: Modulation of MEG2 in human DU145 cells assessed as inhibition of STAT3 phosphorylation at Tyr-705 residue at 20 uM after 24 hrs by Western blot method; assay type: cell-based
[4] = system: DU-145; assay: Effect on total STAT3 protein expression in human DU145 cells up to 20 uM after 24 hrs by Western blot method; assay type: ADME, cell-based; conditions: du-145, 24 h
[5] = target: T2, Signal transducer and activator of transcription 1-alpha/beta (Homo sapiens) (UniProt P42224); assay: Inhibition of STAT1 phosphorylation in human DU145 cells after 24 hrs by Western blot method; assay type: cell-based
T2 sequence (whole entry): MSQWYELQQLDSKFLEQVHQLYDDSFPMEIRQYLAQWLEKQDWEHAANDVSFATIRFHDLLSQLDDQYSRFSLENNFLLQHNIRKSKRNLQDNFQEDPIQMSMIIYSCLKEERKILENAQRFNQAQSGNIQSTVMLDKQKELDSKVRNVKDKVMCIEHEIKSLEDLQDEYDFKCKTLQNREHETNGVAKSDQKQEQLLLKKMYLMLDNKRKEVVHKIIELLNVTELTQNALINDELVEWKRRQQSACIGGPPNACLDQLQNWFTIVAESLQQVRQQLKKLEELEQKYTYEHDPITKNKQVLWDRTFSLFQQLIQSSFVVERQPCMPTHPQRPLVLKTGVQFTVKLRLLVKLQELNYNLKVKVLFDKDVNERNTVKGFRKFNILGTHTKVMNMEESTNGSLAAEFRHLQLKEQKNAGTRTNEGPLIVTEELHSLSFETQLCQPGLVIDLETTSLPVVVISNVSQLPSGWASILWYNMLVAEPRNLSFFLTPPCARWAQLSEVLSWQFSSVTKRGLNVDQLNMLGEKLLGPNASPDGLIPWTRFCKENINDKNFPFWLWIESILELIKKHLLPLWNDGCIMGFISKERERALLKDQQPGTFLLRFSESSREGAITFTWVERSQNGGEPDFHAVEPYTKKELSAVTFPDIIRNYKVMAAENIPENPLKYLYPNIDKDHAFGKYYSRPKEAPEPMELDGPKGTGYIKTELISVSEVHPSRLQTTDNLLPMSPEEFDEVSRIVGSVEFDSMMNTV

[6] = target: T3, Signal transducer and activator of transcription 5A (Homo sapiens) (UniProt P42229); assay: Inhibition of STAT5 phosphorylation in human DU145 cells after 24 hrs by Western blot method; assay type: cell-based
T3 sequence (whole entry): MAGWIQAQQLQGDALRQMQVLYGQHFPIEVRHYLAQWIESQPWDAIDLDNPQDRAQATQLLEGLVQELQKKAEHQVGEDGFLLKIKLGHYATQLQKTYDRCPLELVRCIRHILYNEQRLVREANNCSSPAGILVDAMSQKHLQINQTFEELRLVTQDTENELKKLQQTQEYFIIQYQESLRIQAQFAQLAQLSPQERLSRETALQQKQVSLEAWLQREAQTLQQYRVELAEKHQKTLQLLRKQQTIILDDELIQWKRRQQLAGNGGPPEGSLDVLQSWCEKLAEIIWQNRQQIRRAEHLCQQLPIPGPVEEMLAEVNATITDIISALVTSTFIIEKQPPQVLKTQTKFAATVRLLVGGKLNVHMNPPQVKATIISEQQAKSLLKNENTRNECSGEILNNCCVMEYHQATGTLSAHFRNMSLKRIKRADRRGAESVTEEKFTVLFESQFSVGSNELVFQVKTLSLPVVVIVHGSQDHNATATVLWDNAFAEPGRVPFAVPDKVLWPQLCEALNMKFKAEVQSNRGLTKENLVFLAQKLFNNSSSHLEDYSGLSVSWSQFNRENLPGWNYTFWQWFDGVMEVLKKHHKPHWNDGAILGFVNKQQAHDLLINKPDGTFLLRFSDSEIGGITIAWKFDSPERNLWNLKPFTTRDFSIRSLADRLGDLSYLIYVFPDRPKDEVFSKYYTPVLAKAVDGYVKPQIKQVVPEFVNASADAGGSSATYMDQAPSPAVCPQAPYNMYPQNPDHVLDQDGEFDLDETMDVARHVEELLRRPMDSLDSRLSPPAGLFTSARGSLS

[7] = target: T1, PTPN9/STAT3 (Homo sapiens); assay: Modulation of MEG2 in human DU145 cells assessed as inhibition of STAT3 activation by measuring down regulation of Cyclin D1 level at 10 uM after 24 hrs by Western blot method; assay type: cell-based
[8] = target: T1, PTPN9/STAT3 (Homo sapiens); assay: Modulation of MEG2 in human DU145 cells assessed as inhibition of STAT3 activation by measuring down regulation of Cyclin A level at 10 uM after 24 hrs by Western blot method; assay type: cell-based
[9] = target: T1, PTPN9/STAT3 (Homo sapiens); assay: Modulation of MEG2 in human DU145 cells assessed as inhibition of STAT3 activation by measuring down regulation of survivin level at 10 uM after 24 hrs by Western blot method; assay type: cell-based
[10] = target: T1, PTPN9/STAT3 (Homo sapiens); assay: Modulation of MEG2 in human DU145 cells assessed as inhibition of STAT3 activation by measuring down regulation of Mcl1 level at 10 uM after 24 hrs by Western blot method; assay type: cell-based
[11] = target: T1, PTPN9/STAT3 (Homo sapiens); assay: Modulation of MEG2 in human DU145 cells assessed as inhibition of STAT3 activation by measuring down regulation of Bcl2 level at 10 uM after 24 hrs by Western blot method; assay type: cell-based
[12] = target: T1, PTPN9/STAT3 (Homo sapiens); assay: Modulation of MEG2 in human LNCAP cells assessed as inhibition of IL-6-stimulated STAT3 phosphorylation at 10 uM pretreated for 12 hrs followed by IL-6 stimulation for 30 mins by Western blot method; assay type: cell-based
[13] = system: DU-145; assay: Antiproliferative activity against human DU145 cells after 48 hrs by WST1 assay; assay type: functional; conditions: DU-145, 48 h
[14] = system: LNCaP; assay: Antiproliferative activity against human LNCAP cells by WST1 assay; assay type: functional, cell-based
[15] = system: PC-3; assay: Antiproliferative activity against human PC3 cells by WST1 assay; assay type: functional, cell-based
[16] = system: DU-145; assay: Cell cycle arrest in human DU145 cells assessed as apoptotic cells at 10 uM after 12 hrs by FACS analysis (reference value: 8.1%); assay type: functional
[17] = system: DU-145; assay: Cell cycle arrest in human DU145 cells assessed as accumulation at G0/G1 phase at 10 uM after 12 hrs by FACS analysis (reference value: 41.1%); assay type: functional
[18] = system: DU-145; assay: Cell cycle arrest in human DU145 cells assessed as accumulation at S phase at 10 uM after 12 hrs by FACS analysis (reference value: 7.7%); assay type: functional
[19] = system: DU-145; assay: Cell cycle arrest in human DU145 cells assessed as accumulation at G2/M phase at 10 uM after 12 hrs by FACS analysis (reference value: 24%); assay type: functional
[20] = system: DU-145; assay: Cell cycle arrest in human DU145 cells assessed as apoptotic cells at 10 uM after 24 hrs by FACS analysis (reference value: 8.1%); assay type: functional
[21] = system: DU-145; assay: Cell cycle arrest in human DU145 cells assessed as accumulation at G0/G1 phase at 10 uM after 24 hrs by FACS analysis (reference value: 41.1%); assay type: functional
[22] = system: DU-145; assay: Cell cycle arrest in human DU145 cells assessed as accumulation at S phase at 10 uM after 24 hrs by FACS analysis (reference value: 7.7%); assay type: functional
[23] = system: DU-145; assay: Cell cycle arrest in human DU145 cells assessed as accumulation at G2/M phase at 10 uM after 24 hrs by FACS analysis (reference value: 24%); assay type: functional
[24] = system: DU-145; assay: Cell cycle arrest in human DU145 cells assessed as apoptotic cells at 10 uM after 48 hrs by FACS analysis (reference value: 8.1%); assay type: functional
[25] = system: DU-145; assay: Cell cycle arrest in human DU145 cells assessed as accumulation at G0/G1 phase at 10 uM after 48 hrs by FACS analysis (reference value: 41.1%); assay type: functional
[26] = system: DU-145; assay: Cell cycle arrest in human DU145 cells assessed as accumulation at S phase at 10 uM after 48 hrs by FACS analysis (reference value: 7.7%); assay type: functional
[27] = system: DU-145; assay: Cell cycle arrest in human DU145 cells assessed as accumulation at G2/M phase at 10 uM after 48 hrs by FACS analysis (reference value: 24%); assay type: functional
[28] = system: DU-145; assay: Induction of apoptosis in human DU145 cells assessed as decrease in procaspase-3 level up to 10 uM by Western blot method; assay type: functional, cell-based
[29] = system: DU-145; assay: Increase in cleaved caspase-3 level in human DU145 cells up to 10 uM after 24 hrs by Western blot method; assay type: functional, cell-based
[30] = target: Janus Kinase (JAK) (Homo sapiens) (UniProt P52333+P23458+O60674+P29597); assay: Inhibition of JAK phosphorylation (unknown origin); assay type: protein assay
[31] = target: Proto-oncogene tyrosine-protein kinase Src (Homo sapiens) (UniProt P12931); assay: Inhibition of SRC phosphorylation (unknown origin)
[32] = target: T1, PTPN9/STAT3 (Homo sapiens); assay: Modulation of MEG2 in human DU145 cells assessed as inhibition of STAT3 phosphorylation at Tyr-705 residue at 10 uM after 24 hrs in presence of phosphatase inhibitor Na3VO4 by Western blot method; assay type: cell-based
[33] = target: Signal transducer and activator of transcription 3 (Homo sapiens) (UniProt P40763); assay: Inhibition of STAT3 phosphorylation at Tyr-705 residue in human DU145 cells harboring MEG2 siRNA at 10 uM after 12 hrs by Western blot method; assay type: cell-based
[34] = system: DU-145; assay: Increase in MEG2 protein expression in human DU145 cells at 10 uM by Western blot method; assay type: functional, cell-based; conditions: TDE = time-dependent effect
[35] = target: Signal transducer and activator of transcription 3 (Homo sapiens) (UniProt P40763); assay: Inhibition of STAT3 phosphorylation at Tyr-705 residue in human DU145 cells harboring SHP2 siRNA at 10 uM after 12 hrs by Western blot method; assay type: cell-based

T1 sequence (P40763 2-770 limits assumed): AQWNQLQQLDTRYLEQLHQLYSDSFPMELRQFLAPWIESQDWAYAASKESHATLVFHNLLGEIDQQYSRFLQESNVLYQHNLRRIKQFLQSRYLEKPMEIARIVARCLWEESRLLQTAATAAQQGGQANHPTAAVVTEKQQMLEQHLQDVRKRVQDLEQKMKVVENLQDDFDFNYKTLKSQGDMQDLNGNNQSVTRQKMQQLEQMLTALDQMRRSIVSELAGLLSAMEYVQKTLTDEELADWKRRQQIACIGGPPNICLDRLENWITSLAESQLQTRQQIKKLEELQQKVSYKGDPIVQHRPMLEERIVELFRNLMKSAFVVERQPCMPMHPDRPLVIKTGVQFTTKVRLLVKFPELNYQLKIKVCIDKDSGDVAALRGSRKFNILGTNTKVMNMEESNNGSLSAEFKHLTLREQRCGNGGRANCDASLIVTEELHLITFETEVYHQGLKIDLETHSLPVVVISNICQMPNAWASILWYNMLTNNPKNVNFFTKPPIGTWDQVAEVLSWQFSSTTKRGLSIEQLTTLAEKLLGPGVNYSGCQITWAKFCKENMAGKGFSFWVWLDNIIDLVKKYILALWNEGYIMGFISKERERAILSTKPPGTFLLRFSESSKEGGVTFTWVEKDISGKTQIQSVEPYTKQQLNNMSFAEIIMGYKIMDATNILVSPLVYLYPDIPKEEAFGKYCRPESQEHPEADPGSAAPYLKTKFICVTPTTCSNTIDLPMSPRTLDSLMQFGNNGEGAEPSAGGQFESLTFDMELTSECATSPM
T1 sequence (P43378 whole entry partner): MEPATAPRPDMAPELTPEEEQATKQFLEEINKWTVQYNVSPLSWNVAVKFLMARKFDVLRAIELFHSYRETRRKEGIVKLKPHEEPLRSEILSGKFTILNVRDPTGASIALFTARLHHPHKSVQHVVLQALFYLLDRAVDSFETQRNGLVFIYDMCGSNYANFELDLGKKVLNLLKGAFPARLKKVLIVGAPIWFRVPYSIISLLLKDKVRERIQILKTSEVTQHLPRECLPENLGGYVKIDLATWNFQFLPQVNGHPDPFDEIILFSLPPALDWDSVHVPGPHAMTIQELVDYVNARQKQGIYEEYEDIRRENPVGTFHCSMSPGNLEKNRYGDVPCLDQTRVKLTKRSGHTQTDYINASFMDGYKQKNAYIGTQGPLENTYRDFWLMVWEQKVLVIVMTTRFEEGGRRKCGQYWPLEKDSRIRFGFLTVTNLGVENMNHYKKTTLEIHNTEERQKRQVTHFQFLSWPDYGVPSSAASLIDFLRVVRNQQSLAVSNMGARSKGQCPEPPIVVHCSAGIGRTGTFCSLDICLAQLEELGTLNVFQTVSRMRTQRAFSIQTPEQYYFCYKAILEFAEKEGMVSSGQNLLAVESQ
Chain of Signal transducer and activator of transcription 3 (Homo sapiens) (P40763 whole entry): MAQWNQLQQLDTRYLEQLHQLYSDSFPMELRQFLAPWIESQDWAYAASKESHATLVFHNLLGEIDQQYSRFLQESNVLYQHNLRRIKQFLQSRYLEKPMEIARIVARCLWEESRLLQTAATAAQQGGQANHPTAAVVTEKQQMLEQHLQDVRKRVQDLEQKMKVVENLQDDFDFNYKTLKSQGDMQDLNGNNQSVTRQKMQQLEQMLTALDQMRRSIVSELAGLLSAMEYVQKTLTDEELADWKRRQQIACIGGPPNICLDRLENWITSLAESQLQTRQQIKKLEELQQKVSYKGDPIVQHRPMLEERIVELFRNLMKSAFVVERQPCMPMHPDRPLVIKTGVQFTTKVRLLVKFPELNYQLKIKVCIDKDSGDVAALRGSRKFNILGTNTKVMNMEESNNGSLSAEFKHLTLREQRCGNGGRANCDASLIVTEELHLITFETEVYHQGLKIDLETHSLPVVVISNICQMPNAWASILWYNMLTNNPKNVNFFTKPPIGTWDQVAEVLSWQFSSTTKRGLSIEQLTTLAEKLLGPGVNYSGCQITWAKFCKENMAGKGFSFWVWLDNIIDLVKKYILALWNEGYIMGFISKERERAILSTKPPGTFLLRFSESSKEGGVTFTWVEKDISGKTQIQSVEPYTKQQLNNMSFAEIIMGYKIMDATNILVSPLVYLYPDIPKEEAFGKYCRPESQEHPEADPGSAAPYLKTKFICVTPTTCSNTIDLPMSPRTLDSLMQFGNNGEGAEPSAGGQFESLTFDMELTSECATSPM
Chain of Proto-oncogene tyrosine-protein kinase Src (Homo sapiens) (P12931 2-536 limits assumed): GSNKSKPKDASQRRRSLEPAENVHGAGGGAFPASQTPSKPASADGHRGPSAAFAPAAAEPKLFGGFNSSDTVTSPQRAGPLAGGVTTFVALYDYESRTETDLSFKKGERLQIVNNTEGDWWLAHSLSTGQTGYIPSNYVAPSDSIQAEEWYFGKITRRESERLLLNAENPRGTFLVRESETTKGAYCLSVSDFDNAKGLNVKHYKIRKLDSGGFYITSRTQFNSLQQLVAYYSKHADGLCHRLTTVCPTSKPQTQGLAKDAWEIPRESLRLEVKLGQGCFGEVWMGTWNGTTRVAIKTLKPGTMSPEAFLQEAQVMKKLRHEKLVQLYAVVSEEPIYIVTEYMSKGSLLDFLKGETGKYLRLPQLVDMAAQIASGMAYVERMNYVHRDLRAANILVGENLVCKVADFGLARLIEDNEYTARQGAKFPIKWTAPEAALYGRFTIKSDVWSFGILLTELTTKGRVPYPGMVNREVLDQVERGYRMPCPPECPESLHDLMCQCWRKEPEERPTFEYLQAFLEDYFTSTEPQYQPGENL

IC50 [1]: > 40 µM
inhibition [2]: Dose-dependent effect
inhibition [3]: > 90%
inhibition [5]: inactive
inhibition [6]: inactive
inhibition [7]: Active
inhibition [8]: Active
inhibition [10]: Active
inhibition [11]: Active
inhibition [12]: Active
GI50 [13]: 15 µM
inhibition [30]: inactive
inhibition [31]: inactive
inhibition [32]: inactive
inhibition [33]: inactive
inhibition [35]: Active
SMILES: COC1=CC(=O)/C(=C(\C=C\c2ccccc2)OC)C1=O
Activity [4]: Non-Toxic
inhibition [9]: Active
Activity [14]: inactive
Activity [15]: inactive
Activity [16]: 4.5%
Activity [17]: 43.5%
Activity [18]: 7.8%
Activity [19]: 34%
Activity [20]: 8.5%
Activity [21]: 50.3%
Activity [22]: 4.1%
Activity [23]: 23.6%
Activity [24]: 20.8%
Activity [25]: 36.7%
Activity [26]: 5.6%
Activity [27]: 31.6%
Activity [28]: Active
Activity [29]: inactive
Activity [34]: Tde
